# Assay results: ChEMBL document CHEMBL1201862, “PubChem BioAssay data set” (2004)
# pIC50: −log10 of the molar value. The source made the active and inactive calls.
# How the values were obtained:
# Bcl-2-related protein A1 [1] = target: T1, Bcl-2-related protein A1 (Mus musculus, UniProt Q07440); assay: Bfl-1 binding inhibitors, SAR follow-up, biochemical, fluorescence polarization (AID 1070)
# T1 sequence (Q07440 whole entry): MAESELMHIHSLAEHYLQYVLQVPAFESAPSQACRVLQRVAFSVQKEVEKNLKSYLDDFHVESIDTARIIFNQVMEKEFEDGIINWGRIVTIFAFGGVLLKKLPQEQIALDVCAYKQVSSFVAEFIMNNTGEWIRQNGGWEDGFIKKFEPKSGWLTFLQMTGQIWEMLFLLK
# Bcl-2-related protein A1 [2] = target: T1, Bcl-2-related protein A1; assay: Bfl-1 inhibitors blocking BH3 peptide binding, confirmation, biochemical, TR-FRET, mouse Bfl-1 (AID 621);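 further: TR-FRET binding of GST-Bfl-1 to FITC-labelled Bid peptide via terbium antibody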
# [3] = target: 5-hydroxytryptamine receptor 1E (Homo sapiens, UniProt P28566); assay: Counterscreen assay for S1P3 antagonists: Dose response cell-based high throughput screening assay to identify antagonists of the 5-Hydroxytryptamine Receptor Subtype 1E (5HT1E). [Related pubchem assays: 1429, 485 ]; assay type: functional
# [4] = target: Neuropeptide Y receptor type 2 (Homo sapiens, UniProt P49146); assay: NPY-Y2 antagonist potency, selectivity check, dose response, counter-screen for NPY-Y1 antagonist project, cell-based (AID 1278); assay type: functional
# [5] = target: Sphingosine 1-phosphate receptor 3 (Homo sapiens, UniProt Q99500); assay: Dose response cell-based high throughput screening assay for antagonists of the Sphingosine 1-Phosphate Receptor 3 (S1P3). [Related pubchem assays: 1429, 485 ]; assay type: functional
# [6] = inhibitors of Bluetongue virus cytopathic effect, confirmation, arbovirus, BSR cells (AID 1250); assay type: functional;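 further: protection from viral cytopathic effect measured as cell viability by ATP luminescence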
# Oxytocin receptor = Oxytocin receptor (Homo sapiens, UniProt P30559); assay: Fluorescence-based cell-based high throughput dose response assay for potentiators of Oxytocin Receptor (OXTR). [Related pubchem assays: 434985 (Confirmation screen (OXTR potentiators in triplicate)), 2481 (Summary (OXTR potentiators)), 2445 (Primary screen (OXTR potentiators in singlicate))]; assay type: functional
# Nonstructural protein 1 = Nonstructural protein 1 (Influenza A virus, UniProt Q194T2); assay type: functional, Influenza A virus (A/California/07/2009(H1N1))
# [7] = enhancers of respiration in Yfh1-depleted yeast, dose response, Friedreich's ataxia, plus single-dose screen (AID 1465); assay type: functional;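 further: yeast depleted of Yfh1p frataxin homolog grown on glycerol needing respiration; WST-1 tetrazolium dye reduction as measure of cellular dehydrogenase metabolic activity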
# [8] = test system: Streptococcus sp. 'group A'; assay: growth inhibition of control SK(-) GAS strain, dose response, counter-screen for streptokinase expression inhibitor project, luminescence, kanamycin, BacTiterGlo, confirmation (AID 1900); assay type: functional, organism-based
# Streptococcus = assay: Group A Streptococcus viability loss, dose response, counter-screen for streptokinase expression inhibitor project, luminescence, BacTiterGlo (AID 1915); assay type: functional, organism-based;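 further: potency for reduction of bacterial viability or growth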
# [9] = HEK293 cell cytotoxicity, dose response, cytotoxicity control, plate reader, cherry-picked samples (AID 743446); assay type: functional, cell-based
# Beta-galactosidase [10] = target: T2, Beta-galactosidase (Escherichia coli, UniProt Q8VNN2); assay: PubChem AID 485352; assay type: functional
# [11] = LGR2 antagonists, dose response, cell-based, HEK293, CRE-luciferase reporter, cherry pick, set 2 (AID 743343); assay type: functional;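 further: transfected cells were stimulated with diluted bursicon conditioned medium after compound addition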
# [12] = target: T3, Type-1 angiotensin II receptor (Homo sapiens, UniProt P30556); assay: AT1 receptor antagonists, dose response, selectivity assay for APJ receptor antagonist project, cell-based, uHTS hits (AID 463214); assay type: functional;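 further: antagonist potency against angiotensin II stimulated AT1 response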
# T3 sequence (P30556 whole entry): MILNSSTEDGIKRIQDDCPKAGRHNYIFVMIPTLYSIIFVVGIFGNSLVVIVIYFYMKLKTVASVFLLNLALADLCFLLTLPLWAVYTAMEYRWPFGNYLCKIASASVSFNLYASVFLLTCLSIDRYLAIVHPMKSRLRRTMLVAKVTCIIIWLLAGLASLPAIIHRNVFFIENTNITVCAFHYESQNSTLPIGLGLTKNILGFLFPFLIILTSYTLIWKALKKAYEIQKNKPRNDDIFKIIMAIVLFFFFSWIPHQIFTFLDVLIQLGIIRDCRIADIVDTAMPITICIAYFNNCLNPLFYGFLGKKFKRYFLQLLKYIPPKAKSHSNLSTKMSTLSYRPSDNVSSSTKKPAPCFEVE
# [13] = MC4R antagonists, dose response, counter-screen for LGR2 antagonist project, cell-based, plate reader, cherry pick (AID 743444); assay type: functional;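 further: transfected HEK 293 cells stimulated with alpha-MSH peptide; potency of inhibitors of the alpha-MSH evoked signal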
# [14] = inhibitors of PGC1a acetylation in cells, dose response, cell-based, cherry-picked samples (AID 720514); assay type: functional;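 further: potency may reflect raised or lowered acetylation signal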
# BJ = assay: cytotoxicity toward Ras-transformed BJeLR fibroblasts, dose response, cell-based, alamar blue fluorescence, cherrypicked samples (AID 2631); assay type: functional; conditions: Homo sapiens;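 further: confirmatory dose-response assay in RAS-dependent BJ fibroblasts engineered with TERT, LT and ST, with cytotoxicity read by fluorescence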
# [15] = target: Heat shock protein HSP 90-alpha (Homo sapiens, UniProt P07900); assay type: functional, organism-based
# [16] = target: Sphingosine 1-phosphate receptor 4 (Homo sapiens, UniProt O95977); assay: Fluorescence dose response cell-based high throughput screening assay for antagonists of the Sphingosine 1-Phosphate Receptor 4 (S1P4). [Related pubchem assays: 1524 (Confirmation in triplicates.), 1510 (Primary screen.)]; assay type: functional
# [17] = HepG2 cell cytotoxicity, dose response, cytotoxicity control, plate reader, cherry-pick, antagonist series (AID 743416); assay type: functional, cell-based
# [18] = target: T4, Replicative DNA helicase DnaB (Mycobacterium tuberculosis, UniProt P9WMR3); assay: DnaB intein splicing inhibitors, dose response, biochemical, cell-free fluorescence (AID 449749); assay type: functional
# T4 sequence (P9WMR3 whole entry): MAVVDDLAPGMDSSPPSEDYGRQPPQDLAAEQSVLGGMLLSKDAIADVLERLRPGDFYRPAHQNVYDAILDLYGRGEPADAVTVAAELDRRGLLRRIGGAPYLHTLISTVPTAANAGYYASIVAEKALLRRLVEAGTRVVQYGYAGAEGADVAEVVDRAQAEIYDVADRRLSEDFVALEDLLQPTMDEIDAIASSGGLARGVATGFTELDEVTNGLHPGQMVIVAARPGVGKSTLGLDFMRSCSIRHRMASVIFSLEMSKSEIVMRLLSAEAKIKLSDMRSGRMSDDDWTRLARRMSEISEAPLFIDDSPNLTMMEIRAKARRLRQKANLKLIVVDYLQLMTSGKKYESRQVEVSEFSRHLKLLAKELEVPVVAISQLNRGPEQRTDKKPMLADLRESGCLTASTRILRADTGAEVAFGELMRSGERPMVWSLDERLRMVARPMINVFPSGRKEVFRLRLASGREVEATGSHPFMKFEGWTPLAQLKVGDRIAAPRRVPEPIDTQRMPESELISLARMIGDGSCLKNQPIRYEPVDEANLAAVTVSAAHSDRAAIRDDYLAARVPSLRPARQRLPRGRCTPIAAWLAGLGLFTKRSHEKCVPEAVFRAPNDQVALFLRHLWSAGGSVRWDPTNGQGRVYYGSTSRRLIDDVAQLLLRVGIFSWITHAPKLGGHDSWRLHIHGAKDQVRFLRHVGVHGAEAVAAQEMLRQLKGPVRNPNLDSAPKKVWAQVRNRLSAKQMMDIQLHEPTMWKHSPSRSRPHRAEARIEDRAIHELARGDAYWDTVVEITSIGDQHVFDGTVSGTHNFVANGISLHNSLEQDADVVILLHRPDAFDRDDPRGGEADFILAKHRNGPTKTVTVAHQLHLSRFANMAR
# Protein RecA = target: T5, Protein RecA (Mycobacterium tuberculosis, UniProt P9WHJ3); assay: Fluorescence Cell-Free Homogeneous Dose Retest to Identify Inhibitors of RecA-Intein Splicing Activity. [Related pubchem assays (depositor defined):AID2097, AID2223, AID489010, AID492950]; assay type: functional
# T5 sequence (P9WHJ3 whole entry): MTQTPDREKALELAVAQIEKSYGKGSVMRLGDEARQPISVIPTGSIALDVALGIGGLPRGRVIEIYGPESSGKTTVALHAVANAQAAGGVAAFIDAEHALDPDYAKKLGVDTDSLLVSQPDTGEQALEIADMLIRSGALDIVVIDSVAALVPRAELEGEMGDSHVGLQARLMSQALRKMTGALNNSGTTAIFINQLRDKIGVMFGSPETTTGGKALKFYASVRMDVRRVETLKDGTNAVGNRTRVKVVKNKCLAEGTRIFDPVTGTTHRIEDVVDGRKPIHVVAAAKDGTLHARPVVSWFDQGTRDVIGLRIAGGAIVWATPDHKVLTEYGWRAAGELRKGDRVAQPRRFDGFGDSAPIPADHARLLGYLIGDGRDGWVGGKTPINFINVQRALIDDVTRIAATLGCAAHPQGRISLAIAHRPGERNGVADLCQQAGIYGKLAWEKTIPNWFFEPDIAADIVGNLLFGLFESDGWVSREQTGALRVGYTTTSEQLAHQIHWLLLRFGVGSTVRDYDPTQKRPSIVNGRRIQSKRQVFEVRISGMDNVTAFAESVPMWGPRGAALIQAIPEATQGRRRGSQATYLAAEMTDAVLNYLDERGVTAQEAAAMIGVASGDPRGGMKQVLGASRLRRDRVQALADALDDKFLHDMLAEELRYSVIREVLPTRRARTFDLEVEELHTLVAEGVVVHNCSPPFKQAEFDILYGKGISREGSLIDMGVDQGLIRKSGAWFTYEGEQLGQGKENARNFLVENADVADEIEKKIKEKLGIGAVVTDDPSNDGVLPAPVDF
# [19] = target: T6, Kappa-type opioid receptor (Homo sapiens, UniProt P41145); assay type: functional
# [20] = target: Sphingosine 1-phosphate receptor 1 (Homo sapiens, UniProt P21453); assay type: functional;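 further: Tango beta-arrestin reporter U2OS cells stimulated with S1P near its EC80; inhibitor potency meaning antagonism of receptor activation by the natural agonist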
# [21] = C. albicans growth with fluconazole, confirmation, fluorescence, retest (AID 2467); assay type: functional, cell-based
# [22] = target: T6, Kappa-type opioid receptor; assay type: functional; remark: listed apart in the source
# [23] = A549 cell cytotoxicity, dose response, cytotoxicity control, plate reader, cherry-pick, antagonist series (AID 743412); assay type: functional, cell-based
# HeLa = assay: Cytotoxicity counterscreen assay for transcriptional activators of heat shock protein 70 (Hsp70). [Related pubchem assays: 1203, 1252 ]; assay type: functional; conditions: Homo sapiens;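 further: cells exposed to compound for 16 hours before readout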
# [24] = NIH-3T3 fibroblast cytotoxicity, dose response, cytotoxicity control, cell-based, fluorescence, Alamar Blue, secondary assay (AID 2327); assay type: functional;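 further: NIH-3T3 mouse fibroblasts cultured with fluconazole at 8 µg/mL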
# Beta-galactosidase [25] = target: T2, Beta-galactosidase; assay type: functional
# Leucine aminopeptidase = target: T7, Leucine aminopeptidase (Plasmodium falciparum 3D7, UniProt Q8IL11); assay: P. falciparum M17LAP inhibitors, primary screen, biochemical, fluorogenic H-Leu-NHMec substrate, 1536-well (AID 1619); assay type: functional
# T7 sequence (Q8IL11 whole entry): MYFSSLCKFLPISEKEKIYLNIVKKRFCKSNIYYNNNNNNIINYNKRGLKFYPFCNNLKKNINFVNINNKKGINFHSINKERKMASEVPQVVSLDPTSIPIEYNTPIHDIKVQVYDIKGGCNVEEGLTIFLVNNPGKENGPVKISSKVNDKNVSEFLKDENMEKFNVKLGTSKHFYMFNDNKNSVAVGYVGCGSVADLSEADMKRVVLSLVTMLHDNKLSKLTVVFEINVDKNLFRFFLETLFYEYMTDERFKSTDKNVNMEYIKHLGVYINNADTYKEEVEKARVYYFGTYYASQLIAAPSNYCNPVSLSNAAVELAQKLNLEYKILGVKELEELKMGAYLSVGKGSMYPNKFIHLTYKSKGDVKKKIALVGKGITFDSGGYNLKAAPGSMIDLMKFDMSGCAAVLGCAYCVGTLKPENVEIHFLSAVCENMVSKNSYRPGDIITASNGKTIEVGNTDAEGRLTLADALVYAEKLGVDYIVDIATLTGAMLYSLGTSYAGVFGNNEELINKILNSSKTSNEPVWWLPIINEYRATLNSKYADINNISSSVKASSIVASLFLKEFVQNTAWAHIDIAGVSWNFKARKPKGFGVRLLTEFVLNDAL
# Aspartyl aminopeptidase = Aspartyl aminopeptidase (Plasmodium falciparum 3D7, UniProt Q8I2J3); assay: Counterscreen for inhibitors of M1 and M17 aminopeptidases: QFRET-based biochemical high throughput dose response assay for inhibitors of the Plasmodium falciparum M18 Aspartyl Aminopeptidase (PFM18AAP). [Related PubChem assays: 1619 (Screening assay (M17LAP inhibitors).), 1445 (Screening assay (M1AAP inhibitors).)]
# Procathepsin L = Procathepsin L (Homo sapiens, UniProt P07711); assay: cathepsin L inhibitors, dose response, counter-screen for M1/M17 aminopeptidase inhibitor project, biochemical, QFRET, 1536-well (AID 2214)
# Sequence of Procathepsin L (P07711 whole entry): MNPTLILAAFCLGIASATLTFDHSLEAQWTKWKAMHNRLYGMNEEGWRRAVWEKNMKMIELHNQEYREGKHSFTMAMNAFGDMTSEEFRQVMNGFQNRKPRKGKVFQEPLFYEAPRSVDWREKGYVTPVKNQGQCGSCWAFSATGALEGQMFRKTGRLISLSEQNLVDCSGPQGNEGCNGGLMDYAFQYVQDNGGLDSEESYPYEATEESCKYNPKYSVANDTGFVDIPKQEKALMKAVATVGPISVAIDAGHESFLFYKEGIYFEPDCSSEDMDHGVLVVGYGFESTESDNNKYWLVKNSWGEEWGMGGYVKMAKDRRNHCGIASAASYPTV
# T6 sequence (P41145 whole entry): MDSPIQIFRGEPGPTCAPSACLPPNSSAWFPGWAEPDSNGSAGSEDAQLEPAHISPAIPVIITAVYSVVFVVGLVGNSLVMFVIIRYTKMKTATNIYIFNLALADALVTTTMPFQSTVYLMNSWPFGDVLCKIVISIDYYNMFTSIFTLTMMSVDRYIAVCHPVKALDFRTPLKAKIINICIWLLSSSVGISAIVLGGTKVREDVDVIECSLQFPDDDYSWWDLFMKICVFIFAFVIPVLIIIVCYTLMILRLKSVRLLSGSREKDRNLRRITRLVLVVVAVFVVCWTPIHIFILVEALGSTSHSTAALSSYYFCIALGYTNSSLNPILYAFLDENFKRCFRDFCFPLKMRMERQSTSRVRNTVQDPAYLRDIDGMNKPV
# T2 sequence (Q8VNN2 whole entry): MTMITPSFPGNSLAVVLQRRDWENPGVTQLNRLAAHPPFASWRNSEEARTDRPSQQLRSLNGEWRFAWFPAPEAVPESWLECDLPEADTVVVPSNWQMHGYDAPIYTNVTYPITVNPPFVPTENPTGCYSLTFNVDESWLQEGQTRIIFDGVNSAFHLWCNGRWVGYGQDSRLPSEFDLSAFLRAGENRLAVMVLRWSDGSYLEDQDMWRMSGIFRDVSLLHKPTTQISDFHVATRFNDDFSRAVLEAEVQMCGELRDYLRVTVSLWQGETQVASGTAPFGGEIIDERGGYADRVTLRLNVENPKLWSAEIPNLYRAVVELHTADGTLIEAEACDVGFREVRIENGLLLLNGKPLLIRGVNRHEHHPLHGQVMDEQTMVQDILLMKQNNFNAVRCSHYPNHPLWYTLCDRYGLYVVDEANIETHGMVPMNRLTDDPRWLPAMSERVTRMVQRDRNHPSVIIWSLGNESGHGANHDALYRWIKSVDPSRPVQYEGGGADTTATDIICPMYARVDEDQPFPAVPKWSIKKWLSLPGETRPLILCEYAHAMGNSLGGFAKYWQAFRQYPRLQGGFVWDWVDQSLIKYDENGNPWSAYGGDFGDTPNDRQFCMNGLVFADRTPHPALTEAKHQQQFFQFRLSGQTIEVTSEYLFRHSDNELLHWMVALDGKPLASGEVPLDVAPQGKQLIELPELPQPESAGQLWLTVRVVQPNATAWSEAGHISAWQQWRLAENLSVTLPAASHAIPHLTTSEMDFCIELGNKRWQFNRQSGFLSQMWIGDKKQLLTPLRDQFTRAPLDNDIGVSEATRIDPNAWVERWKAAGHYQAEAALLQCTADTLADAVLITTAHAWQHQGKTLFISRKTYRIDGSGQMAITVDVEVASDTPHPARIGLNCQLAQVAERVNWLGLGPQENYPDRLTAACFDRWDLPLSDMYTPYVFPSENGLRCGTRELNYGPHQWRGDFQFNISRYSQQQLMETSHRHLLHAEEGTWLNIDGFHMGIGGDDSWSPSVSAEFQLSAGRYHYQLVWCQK
# Sequence of Aspartyl aminopeptidase (Q8I2J3 whole entry): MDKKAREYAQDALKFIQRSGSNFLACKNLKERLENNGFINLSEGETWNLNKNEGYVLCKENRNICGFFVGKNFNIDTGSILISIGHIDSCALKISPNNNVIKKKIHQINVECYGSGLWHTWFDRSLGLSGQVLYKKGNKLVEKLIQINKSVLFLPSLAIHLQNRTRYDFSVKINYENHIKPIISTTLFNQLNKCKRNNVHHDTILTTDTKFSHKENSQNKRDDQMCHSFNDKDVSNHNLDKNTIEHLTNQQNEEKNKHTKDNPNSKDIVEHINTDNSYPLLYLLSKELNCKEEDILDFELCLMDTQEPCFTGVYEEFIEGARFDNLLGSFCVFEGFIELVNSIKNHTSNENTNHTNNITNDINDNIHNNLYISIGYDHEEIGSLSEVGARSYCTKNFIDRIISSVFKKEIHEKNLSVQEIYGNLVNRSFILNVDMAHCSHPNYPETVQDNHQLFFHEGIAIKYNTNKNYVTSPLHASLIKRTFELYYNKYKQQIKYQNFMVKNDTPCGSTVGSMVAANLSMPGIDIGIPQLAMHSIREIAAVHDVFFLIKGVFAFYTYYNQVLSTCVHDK
# Sequence of Oxytocin receptor (P30559 whole entry): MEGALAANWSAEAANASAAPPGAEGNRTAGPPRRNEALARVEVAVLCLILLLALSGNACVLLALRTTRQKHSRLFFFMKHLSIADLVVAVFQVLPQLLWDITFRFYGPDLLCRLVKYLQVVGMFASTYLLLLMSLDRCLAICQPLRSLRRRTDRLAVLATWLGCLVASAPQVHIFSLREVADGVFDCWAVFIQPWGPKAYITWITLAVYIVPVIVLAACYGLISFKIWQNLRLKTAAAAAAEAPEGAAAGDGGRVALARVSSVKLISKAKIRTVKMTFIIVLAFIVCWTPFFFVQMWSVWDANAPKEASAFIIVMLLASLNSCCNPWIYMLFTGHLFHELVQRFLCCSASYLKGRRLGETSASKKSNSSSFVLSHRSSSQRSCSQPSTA
# Sequence of 5-hydroxytryptamine receptor 1E (P28566 whole entry): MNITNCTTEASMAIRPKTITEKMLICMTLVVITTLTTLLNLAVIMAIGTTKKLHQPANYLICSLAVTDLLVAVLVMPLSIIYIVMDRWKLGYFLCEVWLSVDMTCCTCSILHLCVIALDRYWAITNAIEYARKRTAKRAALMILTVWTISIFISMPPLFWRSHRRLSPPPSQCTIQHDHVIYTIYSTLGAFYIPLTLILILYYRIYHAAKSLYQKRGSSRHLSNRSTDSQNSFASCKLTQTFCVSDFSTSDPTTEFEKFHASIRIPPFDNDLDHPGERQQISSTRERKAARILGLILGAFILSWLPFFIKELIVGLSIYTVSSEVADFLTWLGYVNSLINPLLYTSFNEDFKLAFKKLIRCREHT
# Sequence of Sphingosine 1-phosphate receptor 3 (Q99500 whole entry): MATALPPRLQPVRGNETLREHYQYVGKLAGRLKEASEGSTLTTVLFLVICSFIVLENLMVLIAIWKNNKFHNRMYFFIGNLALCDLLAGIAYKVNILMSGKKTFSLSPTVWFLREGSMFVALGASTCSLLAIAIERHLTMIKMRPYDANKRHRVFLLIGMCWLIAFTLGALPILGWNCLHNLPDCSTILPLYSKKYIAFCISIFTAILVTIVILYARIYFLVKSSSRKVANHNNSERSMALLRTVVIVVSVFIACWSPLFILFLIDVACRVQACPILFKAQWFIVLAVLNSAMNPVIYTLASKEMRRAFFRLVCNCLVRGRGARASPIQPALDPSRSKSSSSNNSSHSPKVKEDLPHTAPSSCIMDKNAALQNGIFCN
# Sequence of Neuropeptide Y receptor type 2 (P49146 whole entry): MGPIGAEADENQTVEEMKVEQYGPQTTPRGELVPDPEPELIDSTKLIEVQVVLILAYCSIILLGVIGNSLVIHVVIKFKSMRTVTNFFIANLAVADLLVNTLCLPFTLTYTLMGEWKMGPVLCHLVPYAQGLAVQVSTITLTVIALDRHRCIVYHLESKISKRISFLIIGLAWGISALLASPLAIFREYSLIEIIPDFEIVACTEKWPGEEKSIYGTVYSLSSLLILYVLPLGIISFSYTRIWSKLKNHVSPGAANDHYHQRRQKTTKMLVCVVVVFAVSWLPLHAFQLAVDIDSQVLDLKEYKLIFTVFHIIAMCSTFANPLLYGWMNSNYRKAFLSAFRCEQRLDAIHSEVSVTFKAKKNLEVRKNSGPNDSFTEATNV
# Sequence of Nonstructural protein 1 (Q194T2 whole entry): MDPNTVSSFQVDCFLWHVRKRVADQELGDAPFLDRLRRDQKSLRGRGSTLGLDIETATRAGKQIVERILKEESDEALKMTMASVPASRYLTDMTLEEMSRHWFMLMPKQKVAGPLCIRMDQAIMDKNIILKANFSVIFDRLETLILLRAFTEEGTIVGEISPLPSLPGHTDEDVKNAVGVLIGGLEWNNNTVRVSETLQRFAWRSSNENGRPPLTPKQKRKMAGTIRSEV
# Sequence of Sphingosine 1-phosphate receptor 4 (O95977 whole entry): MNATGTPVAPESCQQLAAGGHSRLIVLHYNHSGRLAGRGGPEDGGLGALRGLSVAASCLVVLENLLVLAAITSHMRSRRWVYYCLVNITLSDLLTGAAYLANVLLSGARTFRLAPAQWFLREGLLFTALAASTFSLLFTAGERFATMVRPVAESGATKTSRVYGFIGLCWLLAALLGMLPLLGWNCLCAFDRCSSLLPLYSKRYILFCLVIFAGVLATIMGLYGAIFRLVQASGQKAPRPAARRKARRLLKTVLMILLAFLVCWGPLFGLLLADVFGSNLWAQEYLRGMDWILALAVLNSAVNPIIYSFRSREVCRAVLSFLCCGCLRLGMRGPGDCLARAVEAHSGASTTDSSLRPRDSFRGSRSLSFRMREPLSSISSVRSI
# Sequence of Sphingosine 1-phosphate receptor 1 (P21453 whole entry): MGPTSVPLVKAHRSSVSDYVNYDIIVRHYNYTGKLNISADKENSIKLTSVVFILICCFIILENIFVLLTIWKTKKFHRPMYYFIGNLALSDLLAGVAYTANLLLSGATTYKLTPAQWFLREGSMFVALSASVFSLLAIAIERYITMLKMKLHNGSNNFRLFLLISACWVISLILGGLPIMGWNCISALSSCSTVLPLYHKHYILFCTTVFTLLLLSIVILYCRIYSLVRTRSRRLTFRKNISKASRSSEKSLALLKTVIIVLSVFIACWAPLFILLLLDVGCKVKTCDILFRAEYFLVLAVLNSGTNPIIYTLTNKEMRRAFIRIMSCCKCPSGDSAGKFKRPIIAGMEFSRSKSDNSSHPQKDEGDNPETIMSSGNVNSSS
structure (smiles),measurement,setting,value
Clc1ccc(-n2nnc(-c3cccnc3Cl)n2)cn1,IC50,Bcl-2-related protein A1 [1],> 100 µM (not active)
same,IC50,Bcl-2-related protein A1 [2],> 100 µM (not active)
Cc1cc(C(=O)CSc2nc3ccccc3c(=O)n2C)c(C)n1CC1CCCO1 (centres undefined),IC50,[3],> 50 µM (not active)
same,IC50,[4],> 35 µM (not active)
same,IC50,[5],> 50 µM (not active)
CCOc1ccc(-n2c(SCC(=O)Nc3cc(OC)c([N+](=O)[O-])cc3C)nc3ccccc32)cc1,IC50,[6],43 µM (active)
CCOc1ccc(-c2c(C(=O)N/N=C/c3ccc(Cl)cc3)nnn2-c2nonc2N)cc1,EC50,Oxytocin receptor,> 29.9 µM (not active)
COc1cc([N+](=O)[O-])cc(/C=N/NC(=O)c2ccc(C)nc2)c1O,IC50,Nonstructural protein 1,5.49 µM (active)
same,EC50,[7],> 100 µM (active)
same,EC50,[8],2.62 µM (active)
same,EC50,Streptococcus,2.22 µM (active)
CC(C)(C)c1ccc(-n2nc(C#N)c(Cl)cc2=O)cc1,AC50,[9],6.44 µM (active)
same,EC50,Beta-galactosidase [10],> 40 µM (inactive)
same,AC50,[11],12 µM (active)
same,IC50,[12],38.5 µM (not active)
same,AC50,[13],14.4 µM (active)
same,AC50,[14],2.85 µM (active)
same,EC50,BJ,1.13 µM (active)
same,AC50,[15],3.8 µM (active)
same,IC50,[16],1.87 µM (active)
same,AC50,[17],2.81 µM (active)
same,AC50,[18],746 nM (active)
same,EC50,Protein RecA,989 nM (active)
same,pIC50,[19],5.40
same,IC50,[20],9.04 µM (active)
same,EC50,[21],> 38 µM (not active)
same,IC50,[22],3.68 µM (active)
same,AC50,[23],2.83 µM (active)
same,CC50,HeLa,> 3.67 µM (not active)
same,EC50,[24],5.04 µM (inconclusive)
same,EC50,Beta-galactosidase [25],> 31.5 µM (inactive)
N#Cc1c(NC(=O)C2CC=CCC2C(=O)O)sc2c1CCCCCC2 (centres undefined),IC50,Leucine aminopeptidase,< 1 µM (active)
same,IC50,Aspartyl aminopeptidase,> 73.5 µM (not active)
same,IC50,Procathepsin L,> 59.6 µM (not active)
